Test: Biodistribution of the nano-emulsion of Example 1.1 (radioactivity and fluorescence per organ)
Type: in vivo
Procedure: In the following examples, the radioactivity was counted with the TRiCarb Counter (Ref: Packard, Liquid Scintillation Analyzers; Models 2200CA).
Fluobeam 700 (Fluoptics) is the apparatus with which the whole of the organs from the biodistribution were analyzed in fluorescence as well as the one with which the biodistribution kinetics of the nano-emulsions were established in vivo. This imaging system allows viewing of the fluorescence in spectral bands from 700 to 850 nm for a 650 nm excitation. The apparatus consists of an electric case containing the laser of class 3B, its power supply and an optical head containing the CCD camera.
The nano-emulsions of Example 1 were injected into FVB female and male mice. As a comparison, a mixture of three tracers ([3H]CHE, [14C]CO and DiD) (not formulated as a nano-emulsion) was injected in order to observe the distribution of the tracers in the absence of droplets being used as a distribution carrier.
Tables 6 to 14 provide the biodistribution results of each tracer ([3H]CHE, [14C]CO and DiD) expressed as a percentage of the dose injected per gram of tissue (or [3H]CHE and [14C]CO) or as fluorescence intensity (for DiD) depending on the organ of the mouse, 15 minutes (Table 6), 2 hours (Table 7), 4 hours (Table 8), 6 hours (Table 9), 16 hours (Table 10), 24 hours (Table 11), 72 hours (Table 12), 120 hours (Table 13) and 168 hours (Table 14), after injection into an FVB female mouse of the nano-emulsion of Example 1.1. (nano-emulsion according to the invention comprising the three tracers ([3H]CHE, [14C]CO and DiD).

[1] = 15 min after injection of nano-emulsion of Example 1.1, FVB female mouse
[2] = 2 h after injection of nano-emulsion of Example 1.1, FVB female mouse
[3] = 4 h after injection of nano-emulsion of Example 1.1, FVB female mouse
[4] = 16 h (Table 9 head) after injection of nano-emulsion of Example 1.1, FVB female mouse
[5] = 24 h (Table 10 head) after injection of nano-emulsion of Example 1.1, FVB female mouse
[6] = 48 h (Table 11 head) after injection of nano-emulsion of Example 1.1, FVB female mouse
[7] = 72 h after injection of nano-emulsion of Example 1.1, FVB female mouse
[8] = 120 h after injection of nano-emulsion of Example 1.1, FVB female mouse
[9] = 168 h after injection of nano-emulsion of Example 1.1, FVB female mouse

For `CCCCCCCCCCCCCCCCCCN1/C(=C/C=C/C=C/C2=[N+](CCCCCCCCCCCCCCCCCC)c3ccccc3C2(C)C)C(C)(C)c2ccccc21.[O-][Cl+3]([O-])([O-])[O-]` [DiD, l,r-dioctadécyl-3,3,3′,3′-tetramethylindodicarbocyanine (DiD) perchlorate], the “fluorescence intensity, Adrenal glands (MEAN)” value [1] was 457 photons per pixel, reduced to, the “fluorescence intensity, Brain (MEAN)” value [1] was 145 photons per pixel, reduced to and the “fluorescence intensity, Fat (MEAN)” value [1] was 147 photons per pixel, reduced to. The “fluorescence intensity, Heart (MEAN)” value [1] was 451 photons per pixel, reduced to, the “fluorescence intensity, Intestine (MEAN)” value [1] was 300 photons per pixel, reduced to and the “fluorescence intensity, Kidney (MEAN)” value [1] was 228 photons per pixel, reduced to. For the same molecule, the “fluorescence intensity, Liver (MEAN)” value [1] was 979 photons per pixel, reduced to, the “fluorescence intensity, Lung (MEAN)” value [1] was 618 photons per pixel, reduced to and the “fluorescence intensity, Muscle (MEAN)” value [1] was 1 photons per pixel, reduced to. For the same molecule, the “fluorescence intensity, Ovary (MEAN)” value [1] was 484 photons per pixel, reduced to, the “fluorescence intensity, Pancreas (MEAN)” value [1] was 216 photons per pixel, reduced to and the “fluorescence intensity, Salivary glands (MEAN)” value [1] was 59 photons per pixel, reduced to. The “fluorescence intensity, Spleen (MEAN)” value [1] was 727 photons per pixel, reduced to, the “fluorescence intensity, Uterus (MEAN)” value [1] was 178 photons per pixel, reduced to and the “fluorescence intensity, Adrenal glands (MEAN)” value [2] was 1050 photons per pixel, reduced to. For the same molecule, the “fluorescence intensity, Brain (MEAN)” value [2] was 250 photons per pixel, reduced to, the “fluorescence intensity, Fat (MEAN)” value [2] was 247 photons per pixel, reduced to and the “fluorescence intensity, Heart (MEAN)” value [2] was 389 photons per pixel, reduced to. The “fluorescence intensity, Intestine (MEAN)” value [2] was 637 photons per pixel, reduced to, the “fluorescence intensity, Kidneys (MEAN)” value [2] was 473 photons per pixel, reduced to and the “fluorescence intensity, Liver (MEAN)” value [2] was 1421 photons per pixel, reduced to. For the same molecule, the “fluorescence intensity, Lung (MEAN)” value [2] was 727 photons per pixel, reduced to, the “fluorescence intensity, Muscle (MEAN)” value [2] was 213 photons per pixel, reduced to and the “fluorescence intensity, Ovary (MEAN)” value [2] was 1807 photons per pixel, reduced to. For the same molecule, the “fluorescence intensity, Pancreas (MEAN)” value [2] was 399 photons per pixel, reduced to, the “fluorescence intensity, Salivary glands (MEAN)” value [2] was 288 photons per pixel, reduced to and the “fluorescence intensity, Spleen (MEAN)” value [2] was 805 photons per pixel, reduced to. For the same molecule, the “fluorescence intensity, Uterus (MEAN)” value [2] was 814 photons per pixel, reduced to, the “fluorescence intensity, Adrenal glands (MEAN)” value [3] was 1754 photons per pixel, reduced to and the “fluorescence intensity, Brain (MEAN)” value [3] was 279 photons per pixel, reduced to. For the same molecule, the “fluorescence intensity, Fat (MEAN)” value [3] was 522 photons per pixel, reduced to, the “fluorescence intensity, Heart (MEAN)” value [3] was 550 photons per pixel, reduced to and the “fluorescence intensity, Intestine (MEAN)” value [3] was 974 photons per pixel, reduced to. For the same molecule, the “fluorescence intensity, Kidney (MEAN)” value [3] was 614 photons per pixel, reduced to, the “fluorescence intensity, Liver (MEAN)” value [3] was 1845 photons per pixel, reduced to and the “fluorescence intensity, Lungs (MEAN)” value [3] was 925 photons per pixel, reduced to. The “fluorescence intensity, Muscle (MEAN)” value [3] was 236 photons per pixel, reduced to, the “fluorescence intensity, Ovary (MEAN)” value [3] was 2781 photons per pixel, reduced to and the “fluorescence intensity, Pancreas (MEAN)” value [3] was 527 photons per pixel, reduced to. For the same molecule, the “fluorescence intensity, Salivary glands (MEAN)” value [3] was 516 photons per pixel, reduced to, the “fluorescence intensity, Spleen (MEAN)” value [3] was 955 photons per pixel, reduced to and the “fluorescence intensity, Uterus (MEAN)” value [3] was 712 photons per pixel, reduced to. For the same molecule, the “fluorescence intensity, Adrenal glands (MEAN)” value [4] was 2355 photons per pixel, reduced to, the “fluorescence intensity, Brain (MEAN)” value [4] was 259 photons per pixel, reduced to and the “fluorescence intensity, Fat (MEAN)” value [4] was 532 photons per pixel, reduced to. The “fluorescence intensity, Heart (MEAN)” value [4] was 444 photons per pixel, reduced to, the “fluorescence intensity, Intestine (MEAN)” value [4] was 1139 photons per pixel, reduced to and the “fluorescence intensity, Kidney (MEAN)” value [4] was 627 photons per pixel, reduced to. For the same molecule, the “fluorescence intensity, Liver (MEAN)” value [4] was 1661 photons per pixel, reduced to, the “fluorescence intensity, Lungs (MEAN)” value [4] was 592 photons per pixel, reduced to and the “fluorescence intensity, Muscle (MEAN)” value [4] was 289 photons per pixel, reduced to. The “fluorescence intensity, Ovary (MEAN)” value [4] was 2915 photons per pixel, reduced to, the “fluorescence intensity, Pancreas (MEAN)” value [4] was 564 photons per pixel, reduced to and the “fluorescence intensity, Salivary glands (MEAN)” value [4] was 641 photons per pixel, reduced to. The “fluorescence intensity, Spleen (MEAN)” value [4] was 978 photons per pixel, reduced to, the “fluorescence intensity, Uterus (MEAN)” value [4] was 1759 photons per pixel, reduced to and the “fluorescence intensity, Adrenal glands (MEAN)” value [5] was 2624 photons per pixel, reduced to. For the same molecule, the “fluorescence intensity, Brain (MEAN)” value [5] was 239 photons per pixel, reduced to, the “fluorescence intensity, Fat (MEAN)” value [5] was 553 photons per pixel, reduced to and the “fluorescence intensity, Heart (MEAN)” value [5] was 288 photons per pixel, reduced to. The “fluorescence intensity, Intestine (MEAN)” value [5] was 777 photons per pixel, reduced to, the “fluorescence intensity, Kidney (MEAN)” value [5] was 599 photons per pixel, reduced to and the “fluorescence intensity, Liver (MEAN)” value [5] was 1675 photons per pixel, reduced to. The “fluorescence intensity, Lung (MEAN)” value [5] was 667 photons per pixel, reduced to, the “fluorescence intensity, Muscle (MEAN)” value [5] was 161 photons per pixel, reduced to and the “fluorescence intensity, Ovary (MEAN)” value [5] was 3173 photons per pixel, reduced to. The “fluorescence intensity, Pancreas (MEAN)” value [5] was 446 photons per pixel, reduced to, the “fluorescence intensity, Salivary glands (MEAN)” value [5] was 411 photons per pixel, reduced to and the “fluorescence intensity, Spleen (MEAN)” value [5] was 774 photons per pixel, reduced to. The “fluorescence intensity, Uterus (MEAN)” value [5] was 971 photons per pixel, reduced to, the “fluorescence intensity, Adrenal glands (MEAN)” value [6] was 1484 photons per pixel, reduced to and the “fluorescence intensity, Brain (MEAN)” value [6] was 51 photons per pixel, reduced to. The “fluorescence intensity, Fat (MEAN)” value [6] was 208 photons per pixel, reduced to, the “fluorescence intensity, Heart (MEAN)” value [6] was 122 photons per pixel, reduced to and the “fluorescence intensity, Intestine (MEAN)” value [6] was 481 photons per pixel, reduced to. For the same molecule, the “fluorescence intensity, Kidney (MEAN)” value [6] was 555 photons per pixel, reduced to, the “fluorescence intensity, Liver (MEAN)” value [6] was 1868 photons per pixel, reduced to and the “fluorescence intensity, Lungs (MEAN)” value [6] was 212 photons per pixel, reduced to. For the same molecule, the “fluorescence intensity, Muscle (MEAN)” value [6] was 32 photons per pixel, reduced to, the “fluorescence intensity, Ovary (MEAN)” value [6] was 4018 photons per pixel, reduced to and the “fluorescence intensity, Pancreas (MEAN)” value [6] was 202 photons per pixel, reduced to. For the same molecule, the “fluorescence intensity, Salivary glands (MEAN)” value [6] was 268 photons per pixel, reduced to, the “fluorescence intensity, Spleen (MEAN)” value [6] was 342 photons per pixel, reduced to and the “fluorescence intensity, Uterus (MEAN)” value [6] was 951 photons per pixel, reduced to. The “fluorescence intensity, Adrenal glands (MEAN)” value [7] was 1135 photons per pixel, reduced to, the “fluorescence intensity, Brain (MEAN)” value [7] was 43 photons per pixel, reduced to and the “fluorescence intensity, Fat (MEAN)” value [7] was 159 photons per pixel, reduced to. For the same molecule, the “fluorescence intensity, Heart (MEAN)” value [7] was 113 photons per pixel, reduced to, the “fluorescence intensity, Intestine (MEAN)” value [7] was 297 photons per pixel, reduced to and the “fluorescence intensity, Kidney (MEAN)” value [7] was 365 photons per pixel, reduced to. The “fluorescence intensity, Liver (MEAN)” value [7] was 1136 photons per pixel, reduced to, the “fluorescence intensity, Lungs (MEAN)” value [7] was 120 photons per pixel, reduced to and the “fluorescence intensity, Muscle (MEAN)” value [7] was 3 photons per pixel, reduced to. The “fluorescence intensity, Ovary (MEAN)” value [7] was 2397 photons per pixel, reduced to, the “fluorescence intensity, Pancreas (MEAN)” value [7] was 102 photons per pixel, reduced to and the “fluorescence intensity, Salivary glands (MEAN)” value [7] was 237 photons per pixel, reduced to. For the same molecule, the “fluorescence intensity, Spleen (MEAN)” value [7] was 330 photons per pixel, reduced to, the “fluorescence intensity, Uterus (MEAN)” value [7] was 514 photons per pixel, reduced to and the “fluorescence intensity, Adrenal gland (MEAN)” value [8] was 1688 photons per pixel, reduced to. For the same molecule, the “fluorescence intensity, Brain (MEAN)” value [8] was 90 photons per pixel, reduced to, the “fluorescence intensity, Fat (MEAN)” value [8] was 176 photons per pixel, reduced to and the “fluorescence intensity, Heart (MEAN)” value [8] was 80 photons per pixel, reduced to. The “fluorescence intensity, Intestine (MEAN)” value [8] was 279 photons per pixel, reduced to, the “fluorescence intensity, Kidney (MEAN)” value [8] was 383 photons per pixel, reduced to and the “fluorescence intensity, Liver (MEAN)” value [8] was 996 photons per pixel, reduced to. For the same molecule, the “fluorescence intensity, Lungs (MEAN)” value [8] was 53 photons per pixel, reduced to, the “fluorescence intensity, Muscle (MEAN)” value [8] was 254 photons per pixel, reduced to and the “fluorescence intensity, Ovary (MEAN)” value [8] was 2319 photons per pixel, reduced to. The “fluorescence intensity, Pancreas (MEAN)” value [8] was 297 photons per pixel, reduced to, the “fluorescence intensity, Salivary glands (MEAN)” value [8] was 120 photons per pixel, reduced to and the “fluorescence intensity, Spleen (MEAN)” value [8] was 229 photons per pixel, reduced to. The “fluorescence intensity, Uterus (MEAN)” value [8] was 563 photons per pixel, reduced to, the “fluorescence intensity, Adrenal glands (MEAN)” value [9] was 660.62 photons per pixel, reduced to and the “fluorescence intensity, Brain (MEAN)” value [9] was 40.28 photons per pixel, reduced to. The “fluorescence intensity, Fat (MEAN)” value [9] was 164.55 photons per pixel, reduced to, the “fluorescence intensity, Heart (MEAN)” value [9] was 117.29 photons per pixel, reduced to and the “fluorescence intensity, Intestine (MEAN)” value [9] was 214.02 photons per pixel, reduced to. For the same molecule, the “fluorescence intensity, Kidneys (MEAN)” value [9] was 391.45 photons per pixel, reduced to, the “fluorescence intensity, Liver (MEAN)” value [9] was 676.60 photons per pixel, reduced to and the “fluorescence intensity, Lungs (MEAN)” value [9] was 1.35 photons per pixel, reduced to. For the same molecule, the “fluorescence intensity, Muscle (MEAN)” value [9] was 16.21 photons per pixel, reduced to, the “fluorescence intensity, Ovary (MEAN)” value [9] was 1614.45 photons per pixel, reduced to and the “fluorescence intensity, Pancreas (MEAN)” value [9] was 125.11 photons per pixel, reduced to. The “fluorescence intensity, Salivary glands (MEAN)” value [9] was 216.84 photons per pixel, reduced to, the “fluorescence intensity, Spleen (MEAN)” value [9] was 171.93 photons per pixel, reduced to and the “fluorescence intensity, Uterus (MEAN)” value [9] was 697.92 photons per pixel, reduced to.

Source: patent US9707305B2, “Formulas for diagnosing and treating hormone-dependent cancers and cancers of the organs responsible for steroid hormone synthesis” (Commissariat à l'énergie atomique et aux énergies …, priority 2011, dated 2017)
